The source of these data is patent US12414995B2, “Bifunctional compounds comprising Apcin-A and their use in the treatment of cancer” (Northwestern University, priority 2019, dated 2025).

Where only a bound is given, the exact number is not on record here.

Data set [1] concerns MDA-MB-435 eb cells. Briefly: cells. As to conditions: Homo sapiens, MDA-MB-435, read-out: growth inhibition.
For data set [2], the system named is MDA-MB-435 eb cells.
Data set [3] concerns the target T1, Cdc20 (Homo sapiens, UniProt Q12834). Briefly: Cdc20 degradation by Western blotting in MCF-7 cells. Particulars: various dosages. Background: A western blot detects proteins with antibodies after separation by electrophoresis.
Procedure: (§5) MCF-7, MDA-MB-231 cells were cultured in DMEM medium supplemented with 10% fetal bovine serum (FBS) and 1% penicillin-streptomycin. Flag-Cdc20 MDA-MB-231 cells were cultured in complete DMEM media introduced before with 1 μg/ml Tamoxifen. The Cdc20, cyclin-B and actin antibodies were purchased from Sigma. The actin antibodies were diluted 1:5000. The Cdc20, Cyclin-B and ubiquitin antibodies were diluted 1:1000. The agarose beads were purchased from Cell Signaling Technology.
(§6) The lysates were analyzed by SDS/PAGE. Western blotting was performed by transferring samples onto a nitrocellulose membrane, incubating in 5% milk in TBST (Tris-buffered Saline with Tween 20) at room temperature for 1 h and probing with indicated antibody overnight at 4° C. Membranes were visualized using the ECL prime western blotting detection reagent (GE Healthcare, RPN2232).
(§7) The time course for CP5V-induced Cdc20 degradation was also measured in both cell lines.
Data set [4] deals with T1, Cdc20. Briefly: Cdc20 ubiquitylation (immunoprecipitation, anti-ubiquitin immunoblot) in MDA-MB-231 cells. Particulars: 2 μM, with MG-132.
Procedure: Cdc20 were immunoprecipitated by antibody against Cdc20 followed by immunoblotting using anti-ubiquitin antibody.
Beads were then boiled for 5 min and analyzed by SDS/PAGE. Western blotting was performed according to standard protocols.
To confirm the CP5V-induced degradation of Cdc20 is mediated through the ubiquitin-proteasome pathway, the Cdc20 ubiquitylation in the absence and presence of CP5V as well as Apcin-A was measured.
Data set [5] relates to MDA-MB-231 cells. Briefly: Cell cycle analysis by flow cytometry in MDA-MB-231 cells. Type of data set: cell-based. Particulars: for mitotic arrest: double-thymidine synchronized. As for the experimental part:
. In this example, cell cycle analysis of MDA-MB-231 cells was performed after CP5V treatment. The MDA-MB-231 cells were initially synchronized by double-thymidine followed by treatment with CP5V for 16 hours. Cell cycle profile was then measured by flow cytometry.
(§1) Flow cytometry analysis. MDA-MB-231 and MDA-MB-435 cells were plated in a 6-cm dish and double-synchronized for 18 h and then 15 h with a 9-hour release with fresh medium between them. The cells were released and treated with DMSO, Apcin and CP5V at indicated concentrations for 24 h. After treatment, the cells were collected and stained with propidium iodide (PI) staining buffer and analyzed by flow cytometry.
(§2) Given that Cdc20-APC/C regulates mitotic progression through proteolysis of securin and cyclin B1, CP5V-mediated degradation of Cdc20 was examined for resultant changes of the protein level of securin and cyclin B1. […]. […]
Background: In flow cytometry, cells or beads pass a laser one at a time.

Data set [6] relates to MDA-MB-435 cells. Briefly: Cell cycle analysis by flow cytometry in MDA-MB-435 cells. Type of data set: cell-based. Particulars: for mitotic arrest: synchronized. As for the experimental part: as §1, §2
Data set [7] has as its system Tamoxifen-resistant breast cancer cells. Briefly: Endocrine response of Tamoxifen-resistant breast cancer cells. Type of data set: cell-based.
Data set [8] has as its system HIF1α. The data set can be described thus: HIF1α accumulation by Western blot in MDA-MB-231 cells. Particulars: 10 hours; for HIF1α level: indicated dosages. Type of data set: cell-based. As for the experimental part:
(§3) MDA-MB-231 cells treated with CP5V at indicated dosages for 10 hours were harvested for Western Blot.
MDA-MB-231 cells treated with VHL Ligand 1 at indicated dosages for 10 hours and collected for WB.
Relatively high potential dosage of VHL ligand 1 (VHL1), the VHL-binding moiety offered by CP5V, causes concern if it affects HIF1α, the substrate of VHL.

Data set [9] concerns MCF7 cells. Briefly: Clonogenic assay in MCF7 cells. Particulars: 1 μM for 24 hours, then culture 2 weeks.
From the text: Data are presented as the mean±standard error of the mean (S.E.) of three independent samples (**p<0.01).
In data set [10] the test system is 22Rv1 cells. Briefly: Cell survival CCK8 assay in 22Rv1 cells. Particulars: 72 hours. (In general: Tetrazolium dyes change colour on reduction, which living cells bring about.)
Procedure: (§8) The test was performed in triplicate (n=3). Data are mean±SEM.
In data set [11] the test system is MDA-MB-231 cells. Briefly: Cell proliferation CCK8 assay in MDA-MB-231 cells. The class given is cell-based. As to conditions: Homo sapiens, 72 h, read-out: IC50 of cell growth inhibition. An excerpt:
(§4) Cell proliferation assays.

In data set [12] the test system is LNCaP cells. The data set can be described thus: Cell survival CCK8 assay in LNCaP cells. As to conditions: 72 hours.
Procedure: as §8
The test system of data set [13] is Cdc20 mRNA. Briefly: Cdc20 RNA level by qRT-PCR in MDA-MB-231 cells. Particulars: indicated dosages, 10 hours. The class given is cell-based. As for the experimental part: MDA-MB-231 cells treated with CP5V at indicated dosages for 10 hours were harvested for RNA extraction, reverse-transcription, and further qRT-PCR.
To further confirm the conclusion that the CP5V-medicated degradation is depending on the ubiquitin-proteasome system, RT-PCR was conducted to measure the alteration of Cdc20 RNA levels in response to CP5V treatment.

The test system of data set [14] is U2OS cells. The data set can be described thus: Cell survival CCK8 assay in U2OS cells. As to conditions: 72 hours.
Procedure: as §8
The subject of data set [15] is MDA-MB-435 cells. Briefly: Cell proliferation CCK8 assay in MDA-MB-435 cells. Type of data set: cell-based. Particulars: Homo sapiens, 72 h, read-out: IC50 of cell growth inhibition.
From the text: as §4

In data set [16] the test system is 4T1 xenograft tumor. Briefly: Mouse 4T1 xenograft model. Particulars: 100 mg/kg intraperitoneally twice per week.
Procedure: In this model, 5×10^5 cells 4T1 cells in PBS were injected into the Balb/C mice mammary fat pad. When tumors were palpable, tumor growth was measured for 3 weeks and calculated as 0.52xLXWxW (L=Length, W=Width). […] The mice were sacrificed at the end of treatment, and the xenograft tumor was collected, formalin fixed, paraffin embedded, sectioned. Immunohistochemistry (IHC) was conducted with xenograft tumor and liver tissues to detect Cdc20, Ki67, Activate and Caspase-3.
In data set [17] the test system is Cdc27. Briefly: Cdc27 protein level by Western blot in MDA-MB-231 cells (specificity). Type of data set: cell-based. As to conditions: indicated dosages, 10 hours. As for the experimental part:
as §3
To test the specificity for CP5V in targeting Cdc20, the dosage experiment based on MDA-MB-231 cells was repeated and the alteration of protein levels for Cdc20 and Cdc27, another core subunit of anaphase-promoting complex, was measured.

In data set [18] the test system is cyclin B1. The data set can be described thus: Cyclin B1 level by Western blotting in MDA-MB-231 cells. The class given is cell-based. Particulars: indicated dose, 10 hours. The procedure:
[…]. Cdc20 and cyclin-B levels were then determined by Western blotting.
as §2

The target of data set [19] is T1, Cdc20. The data set can be described thus: Cdc20 degradation by Western blotting in MDA-MB-231 cells. Particulars: MLN4924 5 μM with CP5V, 10 hours.
Procedure: as §5, §6, §7

T1 sequence (Q12834 whole entry): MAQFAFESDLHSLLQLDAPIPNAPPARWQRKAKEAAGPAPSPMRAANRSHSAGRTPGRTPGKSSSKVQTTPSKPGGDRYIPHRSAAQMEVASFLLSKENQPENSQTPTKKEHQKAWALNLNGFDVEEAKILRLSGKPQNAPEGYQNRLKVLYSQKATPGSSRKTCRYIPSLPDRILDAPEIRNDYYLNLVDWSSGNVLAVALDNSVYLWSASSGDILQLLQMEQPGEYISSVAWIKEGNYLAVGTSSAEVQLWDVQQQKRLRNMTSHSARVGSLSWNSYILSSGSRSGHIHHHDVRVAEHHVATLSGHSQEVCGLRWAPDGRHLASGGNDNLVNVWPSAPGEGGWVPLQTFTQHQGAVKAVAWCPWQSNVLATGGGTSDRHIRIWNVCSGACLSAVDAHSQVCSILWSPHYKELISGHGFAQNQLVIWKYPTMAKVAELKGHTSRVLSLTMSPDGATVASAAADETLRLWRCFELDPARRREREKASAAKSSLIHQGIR

Usually inhibition stands for the drop in the measured response relative to a control, in per cent. In the case of `CC(=O)O[C@H]1C(=O)[C@@]2(C)[C@H]([C@H](OC(=O)c3ccccc3)[C@]3(O)C[C@H](OC(=O)[C@H](O)[C@@H](NC(=O)c4ccccc4)c4ccccc4)C(C)=C1C3(C)C)[C@]1(OC(C)=O)CO[C@@H]1C[C@@H]2O` [paclitaxel, reference compound], the inhibition at 0.005 µM in data set [1] is less than 10%. Further, the cells survived entry in data set [2] (5 nM paclitaxel alone) is given as “about 92%”.
Turning to `NCCCOC(=O)NC(Nc1ncccn1)C(Cl)(Cl)Cl` (centres unmarked) [Apcin-A, 3-aminopropyl (2,2,2-trichloro-1-(pyrimidin-2-ylamino)ethyl)carbamate], in data set [3], the “Cdc20 protein level (degradation)” value is recorded as “no degradation of Cdc20”. For the same compound, the Cdc20 ubiquitylation result in data set [4] was “no obvious effect”.
With `Cc1ncc([N+](=O)[O-])n1CCOC(=O)NC(Nc1ncccn1)C(Cl)(Cl)Cl` (centres unmarked) [Apcin], the mitotic arrest entry in data set [5] and in data set [6] was “no effect” each time.
In general, IC50 refers to the point on the concentration scale where inhibition reaches its midpoint. `Cc1ncsc1-c1ccc(CNC(=O)[C@@H]2C[C@@H](O)CN2C(=O)[C@H](NC(=O)CCOCCOCCOCCOCCOCCC(=O)NCCCOC(=O)NC(Nc2ncccn2)C(Cl)(Cl)Cl)C(C)(C)C)cc1` (stereo partly drawn) [CP5V, (R)-25-((2S,4R)-4-hydroxy-2-((4-(4-methylthiazol-5-yl)benzyl)carbamoyl)pyrrolidine-1-carbonyl)-26,26-dimethyl-5,23-dioxo-8,11,14,17,20-pentaoxa-4,24-diazaheptacosyl (2,2,2-trichloro-1-(pyrimidin-2-ylamino)ethyl)carbamate]: the inhibition at 5 µM in [1] was more than 50%. Besides, the “re-sensitization to Tamoxifen” value in data set [7] is on record as “re-sensitizes Tamoxifen-resistant breast cancer cells to Tamoxifen treatment”. In [8], the HIF1α level result is recorded as “no obvious alteration of HIF1α”. Further, in [9], the “colony formation (killing of breast cancer cells)” value is “potent efficacy in killing breast cancer cells”. Also, the “inhibition of cell growth” value in data set [10], in [12] and in data set [14] was “significant inhibition of cell growth” throughout. Also, the half-inhibitory concentration (IC50) in data set [11] was determined as 2600 nM; in [15] it was 1990 nM. Moreover, the “cells arrested in the G2/M phase” value is “over 40%” in [5] (2 μM) and more than 50% in data set [6] (2 μM). Further, the “fraction of cells in the G0/G1 phase” value is “much lower compared to control cells” in data set [5] (2 μM, versus control cells) and “much lower compared to control cells” in data set [6] (2 μM, versus control cells). Further, the mitotic arrest entry in data set [5] and in data set [6] was “induces mitotic arrest” in each case. Further, the “Cdc20 mRNA level” value in data set [13] is given as “no significant change”. Further, the “Cdc20 expression in the xenograft tumor (IHC)” value in [16] is “decreased Cdc20 expression”. Besides, the “Ki67 index in the tumor (IHC)” value in [16] was “decreasing the Ki67 index”. The “effect on mice body weight” value in data set [16] is listed as “no significant effect”. The “expression of caspase-3 in the tumor (IHC)” value in [16] is recorded as “did not change dramatically”. In addition, in [16], the liver toxicity result is on record as “no significant effect”. For the same compound, in data set [16] (Balb/C mice), the “reduction of the size of the xenograft tumor compared to placebo” value is given as “approximately 70%”. The “reduction of the weight of the xenograft tumor compared to placebo” value in [16] (Balb/C mice) was “approximately 70%”. In data set [17], the Cdc27 protein level entry is “no Cdc27 protein level change”. In addition, the “cyclin B1 level” value in data set [18] was “largely accumulated”. In addition, the “Taxol-cytotoxic response of Taxol-resistant cells” value in [2] (with 5 nM paclitaxel) was “significantly restored their Taxol-cytotoxic response”.
For `Cc1ncsc1-c1ccc(CNC(=O)[C@@H]2C[C@@H](O)CN2C(=O)[C@@H](N)C(C)(C)C)cc1` [VHL ligand 1], in data set [8], the “concentration that induced HIF-α accumulation” value was not below 1 µM and the HIF1α level entry is listed as “significant HIF1α is accumulated”.
Consider `NS(=O)(=O)OC[C@@H]1C[C@@H](n2ccc3c(N[C@H]4CCc5ccccc54)ncnc32)C[C@@H]1O` [MLN4924], for which the “effect on CP5V-mediated Cdc20 degradation” value in [19] was “inhibited the degradation of Cdc20 caused by CP5V”.
